{"source": "paper PMC11988454", "about": "“Discovery of synthetic small molecules targeting the central regulator of Salmonella pathogenicity” (Science Advances, 2025)", "key": {"macrophages RAW 264.7": {"test_system": "macrophages RAW 264.7", "assay": "In vitro toxicity, CellTox Green Cytotoxicity Assay, macrophages", "format": "cell-based", "conditions": "RAW 264.7, 6 hours exposure", "experimental": "The screening of in vitro toxicity of the compound analogs was performed with the CellTox Green Cytotoxicity Assay (Promega, USA) according to the manufacturer’s instructions. Cells (10^4 cells per well) were seeded into a 96-well plate and incubated for 24 hours at 37°C, 5% (v/v) CO2. Cells were then treated with the compound at different concentrations or 1% (v/v) DMSO in Dulbecco’s modified Eagle’s medium (DMEM) without phenol red at the desired exposure time. Fluorescence intensity was measured with a TECAN Spark microplate reader. […] page 4: […] 0 10000 20000 30000 40000 50000 Compound concentration (µM) Cytotoxicity (RFU) Fig. S3. […] Cytotoxicity Assay. Fluorescence was measured as a readout for cytotoxicity at 485Ex/520Em. N = 3 biological replicates. (1 picture or pasted object on this page, not shown here)"}, "HeLa cells": {"test_system": "HeLa cells", "assay": "In vitro toxicity, ApoTox-Glo assay", "format": "cell-based"}, "HilC": {"target": "T1, HilC (Salmonella typhimurium, UniProt E1WAB2)", "T1 construct": "His6 followed by TEV protease cleavage site (N, cleaved yes); made in house; host or cells: E. coli C41(DE3)", "T1 sequence (E1WAB2 whole entry)": "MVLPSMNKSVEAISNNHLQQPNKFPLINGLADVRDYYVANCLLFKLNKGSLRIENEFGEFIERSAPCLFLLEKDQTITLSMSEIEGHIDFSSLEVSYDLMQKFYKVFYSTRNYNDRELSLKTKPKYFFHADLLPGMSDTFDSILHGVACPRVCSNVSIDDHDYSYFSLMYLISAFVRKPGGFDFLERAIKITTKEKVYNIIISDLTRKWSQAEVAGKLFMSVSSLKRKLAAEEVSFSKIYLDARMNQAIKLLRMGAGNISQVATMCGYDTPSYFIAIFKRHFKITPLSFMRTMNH", "assay": "nanoDSF thermal stability, HilC", "format": "binding, S. Typhimurium", "experimental": "(§1) Thermal stability of proteins was determined using nanoDSF, with runs performed on a Prometheus NT.48 (NanoTemper Technologies). A twofold serial dilution series of C26 was prepared in DMSO. C26 was added to HilD or HilC (5 μM) in SEC buffer, giving a final DMSO concentration of 1% (v/v). Samples were incubated for >20 min at r.t. and centrifuged for 2 min prior to loading of standard capillaries (no. PR-C002). Samples were heated from 20° to 80°C with a temperature gradient of 0.5°C min^−1. Melting temperatures were calculated from changes in the fluorescence ratio (350/330 nm), using PR.Stability Analysis v1.0.3 and a temperature range of 40° to 70°C for curve fitting. Data analysis was performed using Prism 8.4 (GraphPad). The change in HilD melting temperature, Tm, was fitted as a function of ligand concentration, using Eqs. 1 and 2 to yield apparent affinity (Kd,app) values Tm{[L]0}=Tm,lower+(Tm,upper−Tm,lower)*(1−α{[L]0}) (1) α{[L]0}=[P]t−Kd−[L]t+{[P]t+[L]t+Kd,app}^2−{4[P]t[L]t}/2[P]t (2) where [P]t and [L]t are the total protein and ligand concentrations, respectively."}, "[1]": {"test_system": "T3SS-2 (SseF-HiBiT secretion)", "assay": "SseF-HiBiT injection assay in LgBiT-expressing RAW 264.7 macrophages", "format": "cell-based, S. Typhimurium", "conditions": "C26 100 μM, inside RAW 264.7 macrophages, 7 hours after infection, MOI 10", "experimental": "SseF injection assay was performed using the split-Nanoluc (HiBiT/LgBiT) system as described for SipA. In a white 96-well plate (NUNC) with optical bottom, 10^4 LgBiT-expressing RAW 264.7 macrophages ([65]) were seeded in 100 μl of DMEM, 24 hours before the infection. The strain harboring the plasmid-encoded sseF-HiBiT and the isogenic strain ΔssaV were grown in LB-NaCl at 37°C at 180 rpm until an OD600 of 0.9. Bacteria were washed twice with HBSS (Serva) and then used to infect preseeded cells on a 96-well plate with an MOI of 10. The plate was centrifuged at 300g for 3 min and then incubated for 30 min to allow invasion. Afterward, macrophages were washed with DMEM and incubated for 1 hour in DMEM supplemented with gentamicin (100 μg/ml) to eliminate noninvading bacteria. The medium was replaced by DMEM with gentamicin (16 μg/ml), supplemented with either DMSO (1%) or C26 at different concentrations. Cells were incubated at 37°C with 5% (v/v) CO2 for 5.5 hours (total infection time of 7 hours) and then washed twice with 1x PBS before luminescence measurements were carried out following the manufacturer’s instructions."}, "HilD [2]": {"target": "T2, HilD (Salmonella typhimurium, UniProt E1WAC0)", "T2 construct": "endogenous in cells; host or cells: S. Typhimurium SL1344 strain PhilA-sfGFP", "T2 sequence (E1WAC0 whole entry)": "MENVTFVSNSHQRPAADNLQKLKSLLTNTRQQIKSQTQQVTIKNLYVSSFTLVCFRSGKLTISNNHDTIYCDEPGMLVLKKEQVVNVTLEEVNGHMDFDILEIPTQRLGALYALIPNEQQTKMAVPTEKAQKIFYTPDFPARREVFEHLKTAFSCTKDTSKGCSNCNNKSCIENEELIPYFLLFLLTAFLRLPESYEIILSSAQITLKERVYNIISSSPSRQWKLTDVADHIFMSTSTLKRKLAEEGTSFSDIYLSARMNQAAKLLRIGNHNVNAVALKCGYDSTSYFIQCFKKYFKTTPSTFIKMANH", "assay": "Whole-cell HilD activity assay (PhilA-sfGFP activation)", "format": "cell-based, S. Typhimurium", "experimental": "A whole-cell reporter gene assay was used to quantify HilD transcriptional activity. Strain PhilA-sfGFP and the isogenic ΔhilD PhilA-sfGFP were used for this purpose. Cultures were performed in 1 ml of LB supplemented with 0.3 M NaCl. Compounds at different concentrations or 1% (v/v) DMSO were added to the corresponding tubes. Cultures were incubated at 37°C and 180 rpm for 5 hours. Cells were pelleted, resuspended in 100 μl of PBS, and then transferred into a 96-well black clear-bottom plate (Thermo Fisher Scientific, USA). Fluorescence intensity was measured with a Tecan Spark microplate reader with an excitation wavelength of 485 nm and an emission wavelength of 510 nm. Dose-response curves and IC50 values were calculated using CDD Vault."}, "HilD variants": {"test_system": "HilD variants", "assay": "Plasmid-based whole-cell assay, most frequent HilD substitutions", "design": "species or system S. enterica", "conditions": "C26 100 μM, 19 functional variants", "experimental": "The retrieved sequences and script used to determine the most frequent point mutations in HilD can be accessed on the Zenodo repository. Site-directed mutagenesis was performed using KOD polymerase (Novagen). PhilA activation was monitored as described above using the plasmid-based whole-cell fluorescence assay."}, "HilD [3]": {"target": "T3, HilD (Salmonella typhimurium, UniProt P0CL08)", "T3 construct": "His6-SUMO (N, cleaved yes); made in house; host or cells: E. coli C41(DE3)", "T3 sequence (P0CL08 whole entry)": "as the sequence (E1WAC0 whole entry) above", "assay": "nanoDSF thermal stability, HilD", "format": "binding, S. Typhimurium", "experimental": "as §1"}}, "note": "pIC50, pKd: −log10 of the molar value."}
{"smiles": "CN(CC(=O)NCc1ccc2c(c1)OCO2)Cc1ccc(Br)s1", "note": "[C26, N-(benzo[d][1,3]dioxol-5-ylmethyl)-2-{[(5-bromothiophen-2-yl)methyl](methyl)amino}acetamide]", "values": [{"measurement": "toxicity in macrophages", "setting": "macrophages RAW 264.7", "result": "No toxicity was observed"}, {"measurement": "TC50 viability", "setting": "HeLa cells; 12 hours exposure", "result": "could not be calculated because of low toxicity levels"}, {"measurement": "TC50 viability", "setting": "HeLa cells; 18 hours exposure", "result": 98, "unit": "µM"}, {"measurement": "thermal stability of HilC", "setting": "HilC", "result": "no effect on the thermal stability"}, {"measurement": "SseF-HiBiT secretion, % of the control", "setting": "[1]", "result": 37, "unit": "%"}, {"measurement": "pIC50", "setting": "HilD [2]", "result": 4.77}, {"measurement": "activity on the most frequent HilD substitution variants", "setting": "HilD variants", "result": "inhibitory activity on all the tested variants at a level similar to that of the WT reference sequence"}, {"measurement": "pKd", "setting": "HilD [3]", "result": 4.52}]}
